From patent US20260363244A1, “HERBICIDAL COMPOSITIONS COMPRISING URACILS” (BASF SE, priority 2022, published 2026)
Where two headings read alike, the source gives them in different places.

Experiments:
Assay type in all cases: in vivo
Digitaria sanguinales = test: greenhouse post-emergence herbicidal activity, DIGSA; details: Digitaria, post-emergence, read-out: % activity (solo application)
Protocol: (§1) The following examples serve to illustrate the invention.
(§2) The culture containers used were plastic pots containing loamy sand with approximately 3.0% of humus as substrate. The seeds of the test plants were sown separately for each species.
(§3) For the post-emergence treatment, the test plants were grown to a plant height of from 3 to 15 cm, depending on the plant habit, and only then treated with the active compounds which had been suspended or emulsified in water. To this end, the test plants were either sown directly, and grown in the same containers, or they were first grown separately as seedlings and transplanted into the test containers a few days prior to treatment.
(§4) Depending on the species, the plants were kept at 10-25 °C and 20-35 °C, respectively. The test period extended over 2 to 4 weeks. During this time, the plants were tended and their response to the individual treatments was evaluated.
(§5) Evaluation was carried out using a scale from 0 to 100. 100 means no emergence of the plants, or complete destruction of at least the above-ground parts, and 0 means no damage or normal course of growth. A good herbicidal activity is given at values of at least 70, and very good herbicidal activity is given at values of at least 85.
(§6) The respective stated components A and B, and if appropriate, C were formulated as a 5% by weight strength emulsion concentrate and, with addition of the amount of solvent system, introduced into the spray liquor used for applying the active compound. In the examples, the solvent used was water.
(§7) In the examples below, using the method of S. R. Colby (1967) “Calculating synergistic and antagonistic responses of herbicide combinations”, Weeds 15, p. 22ff., the value E, which is expected if the activity of the individual active compounds is only additive, was calculated.
(§8) E=X+Y−(X·Y/100) • where • X=percent activity using active compound A at an application rate a; • Y=percent activity using active compound B at an application rate b; • E=expected activity (in %) by A+B at application rates a+b.
(§9) The plants used in the greenhouse experiments were of the following species
(§10) In this context, a.i. means active ingredient, based on 100% active ingredient.
(§11) As indicated the application was post emergent (POST) at the respective growth stage (GS) of the weed.
(§12) Assessment was at the indicated days after treatment (DAT).

Lolium multiflorum = test: greenhouse post-emergence herbicidal activity, LOLMU; details: Lolium multiflorum, post-emergence, read-out: % activity (solo application); for activity at […]: 1.6 gai/ha
Protocol: as §1, §2, §3, §4, §5, §6, §7, §8, §9, §10, §11, §12

Kochia scoparia = test: greenhouse post-emergence herbicidal activity, KCHSC; details: Bassia scoparia, post-emergence, read-out: % activity (solo application); for activity at 0.4 g/ha: 0.4 gai/ha; for activity at 0.8 g/ha: 0.8 gai/ha
Protocol: as §1, §2, §3, §4, §5, §6, §7, §8, §9, §10, §11, §12

Brachiaria decumbens = test: greenhouse post-emergence herbicidal activity, BRADC; details: Urochloa decumbens, post-emergence, 1.6 gai/ha, read-out: % activity (solo application)
Protocol: as §1, §2, §3, §4, §5, §6, §7, §8, §9, §10, §11, §12

Avena fatua = test: greenhouse post-emergence herbicidal activity, AVEFA; details: read-out: % activity (solo application); for activity at 0.8 g/ha: 0.8 gai/ha; for activity at 0.5 g/ha: 0.5 gai/ha
Protocol: as §1, §2, §3, §4, §5, §6, §7, §8, §9, §10, §11, §12

Setaria faberi = test: greenhouse post-emergence herbicidal activity, SETFA; details: for % activity (solo application) / activity at 0.5 g/ha: 0.5 gai/ha; for activity at […]: 0.25 gai/ha
Protocol: as §1, §2, §3, §4, §5, §6, §7, §8, §9, §10, §11, §12

Echinocloa crus-galli = test: greenhouse post-emergence herbicidal activity, ECHCG; details: Echinochloa crus-galli, post-emergence, read-out: % activity (solo application)
Protocol: as §1, §2, §3, §4, §5, §6, §7, §8, §9, §10, §11, §12

Abutilon theophrasti = test: greenhouse post-emergence herbicidal activity, ABUTH; details: read-out: % activity (solo application); for activity at 0.5 g/ha: 0.5 gai/ha; for activity at 0.4 g/ha: 0.4 gai/ha; for activity at 0.8 g/ha: 0.8 gai/ha
Protocol: as §1, §2, §3, §4, §5, §6, §7, §8, §9, §10, §11, §12

Amaranthus tamariscinus = test: greenhouse post-emergence herbicidal activity, AMATA; details: read-out: % activity (solo application); for activity at 0.5 g/ha: 0.5 gai/ha; for activity at 0.2 g/ha: 0.2 gai/ha
Protocol: as §1, §2, §3, §4, §5, §6, §7, §8, §9, §10, §11, §12

Commenline benghalensis = test: greenhouse post-emergence herbicidal activity, COMBE; details: read-out: % activity (solo application)
Protocol: as §1, §2, §3, §4, §5, §6, §7, §8, §9, §10, §11, §12

Setaria viridis = test: greenhouse post-emergence herbicidal activity, SETVI; details: Setaria viridis, post-emergence, read-out: % activity (solo application); for activity at 0.5 g/ha: 0.5 gai/ha; for activity at 0.2 g/ha: 0.2 gai/ha; for activity at 0.4 g/ha: 0.4 gai/ha
Protocol: as §1, §2, §3, §4, §5, §6, §7, §8, §9, §10, §11, §12

Eleusine indica = test: greenhouse post-emergence herbicidal activity, ELEIN; details: read-out: % activity (solo application); for activity at […]: 1.6 gai/ha
Protocol: as §1, §2, §3, §4, §5, §6, §7, §8, §9, §10, §11, §12

Sorghum halepense = test: greenhouse post-emergence herbicidal activity, SORHA; details: Sorghum halepense, post-emergence, 480 h, GS 11-33, 20 DAT, read-out: % activity (solo application)
Protocol: as §1, §2, §3, §4, §5, §6, §7, §8, §9, §10, §11, §12

[1] = 480 h, GS 11-33, 20 DAT, 0.2 gai/ha
[2] = 480 h, GS 12-16, 20 DAT, 0.5 gai/ha
[3] = 480 h, GS 11-33, 20 DAT, 1.6 gai/ha
[4] = 480 h, GS 12-16, 20 DAT, 0.25 gai/ha
[5] = 144 h, GS 12-16, 6 DAT, 0.25 gai/ha
[6] = 168 h, GS 11-33, 7 DAT, 1.6 gai/ha
[7] = 168 h, GS 12-16, 7 DAT, 0.25 gai/ha
[8] = Setaria faberi, post-emergence, 144 h, GS 12-16, 6 DAT, read-out: % activity (solo application)
[9] = Setaria faberi, post-emergence, 480 h, GS 12-16, 20 DAT, read-out: % activity (solo application)
[10] = 144 h, GS 12-16, 6 DAT, 0.5 gai/ha
[11] = 168 h, GS 11-33, 7 DAT, 0.2 gai/ha

`CCOC(=O)COc1ccccc1Oc1nc(-n2c(=O)cc(C(F)(F)F)n(C)c2=O)c(F)cc1Cl` [(I.3)] was tested, and the activity at 0.4 g/ha (Digitaria sanguinales; 192 h, GS 11-33, 8 DAT, 0.4 gai/ha) was 30%, the activity at 0.2 g/ha (Digitaria sanguinales; [1]) was 10% and the activity at 0.5 g/ha (Digitaria sanguinales; [2]) was 35%. For the same compound, the activity at […] (Lolium multiflorum; 168 h, GS 11-33, 7 DAT) was 30%, the activity at 0.2 g/ha (Lolium multiflorum; [1]) was 5% and the activity at 0.8 g/ha (Lolium multiflorum; 480 h, GS 11-33, 20 DAT, 0.8 gai/ha) was 10%. For the same compound, the activity at […] (Lolium multiflorum; 480 h, GS 11-33, 20 DAT) was 10%, the activity at 0.4 g/ha (Kochia scoparia; 168 h, GS 11-33, 7 DAT) was 60% and the activity at 0.8 g/ha (Kochia scoparia; 168 h, GS 11-33, 7 DAT) was 75%. For the same compound, the activity at 0.2 g/ha (Kochia scoparia; [1]) was 15%, the activity at 0.4 g/ha (Kochia scoparia; 480 h, GS 11-33, 20 DAT) was 30% and the activity at 0.8 g/ha (Kochia scoparia; 480 h, GS 11-33, 20 DAT) was 55%. It also gave an activity at […] (Kochia scoparia; [3]) of 75%, an activity at […] (Kochia scoparia; [4]) of 40% and an activity at […] (Brachiaria decumbens; 192 h, GS 11-33, 8 DAT) of 50%. The activity at […] (Brachiaria decumbens; 480 h, GS 11-33, 20 DAT) was 40%, the activity at […] (Avena fatua; [5]) was 35% and the activity at 0.8 g/ha (Avena fatua; 168 h, GS 11-33, 7 DAT) was 25%. For the same compound, the activity at […] (Avena fatua; [6]) was 40%, the activity at […] (Avena fatua; [7]) was 35% and the activity at 0.5 g/ha (Avena fatua; 168 h, GS 12-16, 7 DAT) was 40%. The activity at 0.2 g/ha (Avena fatua; [1]) was 10%, the activity at 0.8 g/ha (Avena fatua; 480 h, GS 11-33, 20 DAT) was 15% and the activity at […] (Avena fatua; [3]) was 30%. The activity at […] (Avena fatua; [4]) was 10%, the activity at 0.5 g/ha (Avena fatua; 480 h, GS 12-16, 20 DAT) was 25% and the “% activity (solo application)” value (Setaria faberi; GS 12-16, 6 DAT) was 60%. The “% activity (solo application)” value (Setaria faberi; GS 12-16, 20 DAT) was 60%, the activity at […] (Setaria faberi; [8]) was 55% and the activity at 0.5 g/ha (Setaria faberi; [8]) was 65%. For the same compound, the activity at 0.5 g/ha (Setaria faberi; Setaria faberi, post-emergence, 168 h, GS 12-16, 7 DAT, read-out: % activity (solo application)) was 75%, the activity at 0.2 g/ha (Setaria faberi; Setaria faberi, post-emergence, 480 h, GS 11-33, 20 DAT, 0.2 gai/ha, read-out: % activity (solo application)) was 15% and the activity at 0.4 g/ha (Setaria faberi; Setaria faberi, post-emergence, 480 h, GS 11-33, 20 DAT, 0.4 gai/ha, read-out: % activity (solo application)) was 80%. It also gave an activity at […] (Setaria faberi; [9]) of 55%, an activity at 0.5 g/ha (Setaria faberi; [9]) of 55% and an activity at 0.5 g/ha (Setaria faberi; Setaria faberi, post-emergence, 504 h, GS 12-16, 21 DAT, read-out: % activity (solo application)) of 70%. The activity at […] (Echinocloa crus-galli; [5]) was 40%, the activity at 0.5 g/ha (Echinocloa crus-galli; [10]) was 55% and the activity at […] (Echinocloa crus-galli; [6]) was 60%. The activity at […] (Echinocloa crus-galli; [3]) was 60%, the activity at 0.5 g/ha (Abutilon theophrasti; 144 h, GS 12-16, 6 DAT) was 95% and the activity at 0.2 g/ha (Abutilon theophrasti; [11]) was 80%. The activity at 0.4 g/ha (Abutilon theophrasti; 168 h, GS 11-33, 7 DAT) was 85%, the activity at 0.8 g/ha (Abutilon theophrasti; 168 h, GS 11-33, 7 DAT) was 85% and the activity at […] (Abutilon theophrasti; [6]) was 90%. The activity at […] (Abutilon theophrasti; [7]) was 85%, the activity at 0.5 g/ha (Abutilon theophrasti; 168 h, GS 12-16, 7 DAT) was 90% and the activity at 0.4 g/ha (Abutilon theophrasti; 480 h, GS 11-33, 20 DAT) was 80%. The activity at 0.8 g/ha (Abutilon theophrasti; 480 h, GS 11-33, 20 DAT) was 80%, the activity at […] (Abutilon theophrasti; [3]) was 90% and the activity at […] (Abutilon theophrasti; 504 h, GS 12-16, 21 DAT, 0.25 gai/ha) was 85%. The activity at 0.5 g/ha (Amaranthus tamariscinus; 144 h, GS 12-16, 6 DAT) was 90%, the activity at 0.2 g/ha (Amaranthus tamariscinus; 168 h, GS 11-33, 7 DAT) was 70% and the activity at 0.2 g/ha (Amaranthus tamariscinus; 480 h, GS 11-33, 20 DAT) was 40%. For the same compound, the activity at […] (Amaranthus tamariscinus; [3]) was 90%, the activity at […] (Amaranthus tamariscinus; [4]) was 70% and the activity at 0.5 g/ha (Amaranthus tamariscinus; 480 h, GS 12-16, 20 DAT) was 85%. For the same compound, the activity at […] (Commenline benghalensis; [5]) was 40%, the activity at 0.5 g/ha (Commenline benghalensis; [10]) was 90% and the activity at 0.2 g/ha (Commenline benghalensis; [11]) was 20%. For the same compound, the activity at […] (Commenline benghalensis; [3]) was 95%, the activity at […] (Commenline benghalensis; [4]) was 60% and the activity at […] (Setaria viridis; [5]) was 35%. For the same compound, the activity at 0.5 g/ha (Setaria viridis; 144 h, GS 12-16, 6 DAT) was 60%, the activity at 0.2 g/ha (Setaria viridis; 192 h, GS 11-33, 8 DAT) was 20% and the activity at 0.4 g/ha (Setaria viridis; 192 h, GS 11-33, 8 DAT) was 25%. The activity at […] (Setaria viridis; 192 h, GS 11-33, 8 DAT, 1.6 gai/ha) was 95%, the activity at 0.2 g/ha (Setaria viridis; 480 h, GS 11-33, 20 DAT) was 5% and the activity at 0.4 g/ha (Setaria viridis; 480 h, GS 11-33, 20 DAT) was 10%. For the same compound, the activity at […] (Setaria viridis; [3]) was 90%, the activity at […] (Setaria viridis; [4]) was 30% and the activity at 0.5 g/ha (Setaria viridis; 480 h, GS 12-16, 20 DAT) was 85%. For the same compound, the activity at […] (Eleusine indica; 168 h, GS 11-33, 7 DAT) was 95%, the activity at 0.2 g/ha (Eleusine indica; [1]) was 20% and the activity at […] (Eleusine indica; 480 h, GS 11-33, 20 DAT) was 90%. The activity at 0.5 g/ha (Eleusine indica; [2]) was 35%, the activity at 0.2 g/ha (Sorghum halepense; 0.2 gai/ha) was 10% and the activity at 0.4 g/ha (Sorghum halepense; 0.4 gai/ha) was 20%. The activity at 0.8 g/ha (Sorghum halepense; 0.8 gai/ha) was 30% and the activity at […] (Sorghum halepense; 1.6 gai/ha) was 30%.
